Legend:
mutp53 = assay: Summary score of peptide functional screens; conditions: overall score over conformation, DNA binding, viability and PCR screens
mutp53^R175H = assay: ELISA of mutp53 conformation (PAb1620/PAb240), H1299-p53^R175H cell extract; format: biochemical, human; conditions: for Conform H1299: score 0-6 compared to positive control, mutp53 conformation; for reactivity of p53^R175H with PAb1620 and PAb240: H1299-p53^R175H cell extract, Figure 2A
Source text: A total of close to 350 peptides, deduced from the phage sequences, were synthesized and subjected to several alternative complementary methods of semi high-throughput functional screening; we refer to these peptides as pCAPs (p53 conformation activating peptides). First, we used cell-free ELISA assays to evaluate the effect of individual peptides on mutp53 conformation and DNA binding in vitro. For conformation analysis (Figure 2A), microtiter plates were coated with PAb240, PAb1620 or PAb421 as control, then the effect of each peptide on reactivity of mutp53 with these antibodies was examined; WTp53 served as a positive control for PAb1620 reactivity.
(§1) Cell extracts were added to ELISA plates coated with the indicated antibodies to allow mutp53 to react with the peptides and antibodies. αp53-HRP Ab was used for assessment of p53 levels. Numbers represent ratio of absorbance between the PAb1620 and PAb240 samples. All reads were normalized to the control […] reading of each extract. MCF7 (WTp53) and H1299-mutp53^A135V (tsp53) cells were used as positive controls for the WTp53 conformation (1620/240 ratio equals or exceeds 5:1). […] 96 well plates were coated with anti-p53 antibody, cell extracts containing p53 were reacted with oligonucleotides that contain a p53RE consensus binding site, labeled with biotin, in the presence or absence (NT) of test peptides. Streptavidin-HRP is used to quantify the amount of oligos in the well. TMB assay was performed to determine bound mutp53 levels (450nm). MCF7 and the H1299-mutp53^A135V(TS) cells serve as positive controls for WTp53. C.and D. - Bar graphs illustrating the effect of various selected peptides on mut-p53 dependent expression on cell viability. […] D, ES2 cells expressing endogenous mutp53 (blue bars) and ES2 cells knocked out for p53 by CRISPR construct (light blue bars). Cell lines were treated with selected peptides, Cis-platinum was used as positive control for cell death. 48 hours after treatment, cells were washed with PBS, and the remaining attached cells were stained with Crystal violet and washed 4 times with PBS. Stained cells were dissolved in 10% acetic acid and plates were taken for optical density measurement at […]. TEXT PRINTED IN THE PICTURE: (A) pCAP1: 0.87 | (A) pCAP2: 0.53 | (A) pCAP3: 0.59 | (A) pCAP4: 0.59 | (A) pCAP5: 0.60 | (A) pCAP6: 0.75 | (A) pCAP23: 1.06 | (A) pCAP24: 1.44 | (A) pCAP36: 1.25 | (A) pCAP47: 1.54 | (A) pCAP54: 1.54 | (A) pCAP60: 2.73 | (A) pCAP68: 2.22 | (A) pCAP83: 1.56 | (A) pCAP97: 2.45 DOUBTS OF THE COPYIST ABOUT THIS PICTURE: Panel A: the numbers over the bars are printed very small, rotated and blurred, so 3, 5, 6, 8 and 9 cannot be told apart with certainty. All values are best readings: pCAP1 0.87, pCAP2 0.53, pCAP3 0.59, pCAP4 0.59, pCAP5 0.60, pCAP6 0.75, pCAP23 1.06, pCAP24 1.44, pCAP36 1.25, pCAP47 1.54, pCAP54 1.54, pCAP60 2.73, pCAP68 2.22, pCAP83 1.56, pCAP97 2.45 / Panel A: the picture prints no measure with the numbers over the bars, so they are given as bare numbers / Panel A: numbers are also printed over the controls, which are not substances and are left out of lines. Best readings: NT 0.60, 60° 30'' 0.48, 60° 1' 0.37, 60° 3' 0.13, 60° 10' 0.05, MCF7 3.32, H1299TS 3.25
Extracts were prepared at a concentration of 750ng/μl and then reacted for 2 hours with different peptides. Plates coated with the different antibodies were then washed and blocked, and extracts pre-incubated either with or without peptides were added for two additional hours. After removal of extracts, plates were washed and incubated with HRP-conjugated anti-p53 antibody. Finally, HRP activity was quantified by optical density at 450nm. MCF7 cells (expressing WTp53) and H1299-tsp53^A135V cells, stably expressing a temperature sensitive p53 mutant that has mutant conformation at 37°C but WT conformation at 32°C [31], were used as positive controls for the WTp53 conformation (1620/240 ratio 5:1). […]

SK3 = assay: Crystal violet viability assay, SK3; format: cell-based, human; design: key: score 0- no effect-white; score 6- as or more effective than positive control- black; conditions: score 0-6 compared to positive control, 48 h
Source text: (§2) We also performed a similar analysis on ES2 ovarian cancer cells, which express endogenous mp53^S241F, compared to ES2 cells in which p53 was stably knocked out using CRISPR/Cas9 (ES2 p53KO Figure S1F), to control for specificity for mutp53 (Figure 2D). In ES2 cells, too, some of the peptides caused a significant reduction in cell numbers, more prominent in the mutp53 expressing cells than in their p53KO counterparts. […] Overall, we performed this analysis on several different mutp53-expressing human cancer cell lines, and the results are summarized in Table S3. Based on this comprehensive picture, we reduced the number of most promising candidate lead peptides to 30. These peptides were then synthesized with an 8 arginine C-terminal tail for enhanced delivery across cell membranes (pCAPs 130-160); for clarity, peptides are referred to by their original number, with an R for poly arginine (see Table S3).
(§3) Cells were cultured in 96 wells plates with 2500-4000 cells/well. Serial dilutions of different peptides were added and the plates incubated for additional 48 h at 37°C. Then medium was removed and cell viability was determined by staining the cells with crystal violet (0.05%) in methanol/PBS (1:5, v/v), for 10 min, followed by 3 washes with PBS. 10% acetic acid was added to each well for 10 min. OD was determined at 595 nm.

ES2 ovarian cancer cells = assay: Crystal violet viability assay, ES2; format: cell-based, human; design: key to Viability ES2: score 0- no effect-white; score 6- as or more effective than positive control- black; conditions: 48 h; for Viability ES2: score 0-6 compared to positive control; for mutp53-specific effect on cell number, ES2: ES2 (mp53^S241F) versus ES2 p53KO
Protocol: as §1, §2, §3

WI38 = assay: Crystal violet viability assay, WI38; format: cell-based; design: key: score 0- no effect-white; score 6- as or more effective than positive control- black; conditions: score 0-6 compared to positive control, 48 h
Protocol: as §3

Row | Substance | SCORE (mutp53) | Conform H1299 (mutp53^R175H) | Viability SK3 (SK3) | Viability ES2 (ES2 ovarian cancer cells) | Viability WI38 (WI38) | mutp53-specific effect on cell number, ES2 (ES2 ovarian cancer cells) | reactivity of p53^R175H with PAb1620 and PAb240 (mutp53^R175H)
1 | LHSKTLVL [pCAP-17] | 20 | 2 | 3 | 3 | – | – | –
2 | SFILFIRRGRLGRRRRRRRRR [pCAP-60R, pCAP-60 with poly arginine tail] | 32 | – | 5 | 3 | 2 | – | –
3 | myr-RRKHNKHRPEPDSDER [pCAP-221] | 58 | – | 5 | 6 | 6 | – | –
4 | myr-RRKILFIRLMHNKH [pCAP-227, myristoylated peptide, similarity to GAS2] | 56 | 2 | 6 | 5 | 3 | – | –
5 | HSSHHHPVHSWN [pCAP-83] | 27 | 4 | – | – | 3 | mutp53-specific effect | –
6 | WNHHHSTPHPAHRRRRRR [pCAP-97R, pCAP-97 with poly arginine tail] | 46 | 1 | 3 | 4 | 4 | – | –
7 | LRCLLLLIGRVGRRRRRRRR [pCAP-24R, pCAP-24 with poly arginine tail] | 34 | 3 | 2 | 3 | – | – | –
8 | myr-RRIRDPRILLLHFD [pCAP-325] | 53 | – | 3 | 4 | 6 | – | –
9 | HHPWTHHQRWS [pCAP-20] | 19 | 2 | 3 | 3 | – | – | –
10 | HANLHHT [pCAP-87] | 32 | 3 | – | – | – | – | –
11 | WNHHHSTPHPAH [pCAP-97] | 39 | 1 | – | 3 | 4 | mutp53-specific effect | increased the reactivity of p53^R175H with PAb1620 and decreased its reactivity with PAb240
12 | IRILMFLIGCGRRRRRRRRR [pCAP-23R, pCAP-23 with poly arginine tail] | 24 | 2 | 3 | 3 | 2 | – | –
13 | IRGRIIR [pCAP-54] | 23 | 3 | 4 | – | 4 | mutp53-specific effect | increased the reactivity of p53^R175H with PAb1620 and decreased its reactivity with PAb240
14 | myr-RRLIVRILKLPNPPER [pCAP-242] | 55 | 2 | 5 | 5 | 4 | – | –
15 | YRRLLIGMMWRRRRRRRRR [pCAP-68] | 37 | 4 | – | 5 | – | – | increased the reactivity of p53^R175H with PAb1620 and decreased its reactivity with PAb240
16 | LRCLLLLIGRVG [pCAP-24] | 23 | 3 | – | – | – | mutp53-specific effect | –
17 | YPTQGHLR [pCAP-36] | 32 | 5 | – | 3 | 4 | mutp53-specific effect | –
18 | IRILMFLIGCGR [pCAP-23] | 21 | 2 | 3 | 3 | – | – | –
19 | EVTFRHSVV [pCAP-1, randomly selected peptide used as inert comparison] | 19 | – | 3 | 4 | – | – | –
20 | SFILFIRRGRLG [pCAP-60] | 26 | – | 3 | 3 | – | mutp53-specific effect | increased the reactivity of p53^R175H with PAb1620 and decreased its reactivity with PAb240
21 | myr-PRVLPSPHTIHPSQYP [pCAP-229, myristoylated peptide, similarity to HIPK2] | 35 | – | 3 | – | 3 | – | –
22 | IRGRIIRRRRRRRRR [pCAP-54R, pCAP-54 with poly arginine tail] | 28 | 1 | 4 | 3 | 4 | – | –
